Here are results for 37 compounds from the Deep4Chem optical property database.

This data set can be described thus: photoluminescence quantum yield (fraction); solvent given as SMILES.

In the case of `O=C1/C(=C\c2ccc3oc4ccccc4c3c2)S(=O)(=O)c2ccccc21`, the photoluminescence quantum yield was 0.037 (in C1CCOC1); 0.047 (in C1COCCO1); 0.041 (in CC#N); 0.055 (in CC(C)=O); 0.048 (in CCOC(C)=O); 0.192 (in CN(C)C=O). The photoluminescence quantum yield is, setting by setting: (in CO) 0.025; (in CS(C)=O) 0.209; (in Cc1ccccc1) 0.116; (in ClC(Cl)Cl) 0.036; (in ClCCl) 0.092.
Consider `N#Cc1cc(C#Cc2c(F)c(F)nc(F)c2F)c(C#Cc2c(F)c(F)nc(F)c2F)cc1C#N`, for which the photoluminescence quantum yield (in CC#N) worked out at 0.49.
For `CC(C)[Si](C#Cc1c2cc3ccccc3cc2c(C#C[Si](C(C)C)(C(C)C)C(C)C)c2nc3cc4c(cc3nc12)C1c2ccccc2C4c2ccccc21)(C(C)C)C(C)C`, the photoluminescence quantum yield by setting is: (in CCCCCC) 0.45; (in ClCCl) 0.11.
In the case of `O=c1c2cccc3cccc(c32)c2nc3c(F)c(F)c(F)c(F)c3n12`, the photoluminescence quantum yield (in ClCCl) was found to be 0.82.
For the compound `O=C1c2ccccc2S(=O)(=O)c2ccc(-n3c4ccccc4c4ccccc43)cc21`, the photoluminescence quantum yield (in c1cc(-c2cccc(-n3c4ccccc4c4ccccc43)c2)cc(-n2c3ccccc3c3ccccc32)c1) amounted to 0.296.
Consider `CNc1cccc2c1C(=O)c1ccccc1C2=O`, for which the photoluminescence quantum yield came out at 0.014 (in C1CCC2CCCCC2C1); 0.0135 (in C1CCCCC1); 0.0138 (in CC1CCCCC1); 0.0026 (in CC#N); 0.0136 (in CCC(C)CC); 0.0136 (in CCCCCC). Moreover, the photoluminescence quantum yield (in CCOC(C)=O) worked out at 0.0048.
Consider `N#Cc1nn(-c2c(Cl)cccc2Cl)nc1N1CCCC1`, for which the photoluminescence quantum yield (in CC#N) was 0.113.
Turning to `COC(=O)c1cc(=O)n(C)c2cc(-c3ccccc3OC)sc12`, the photoluminescence quantum yield came to 0.61 (in CC#N) and 0.51 (in ClCCl).
`CB1C=Cc2ccc3ccccc3c2N1c1ccccc1` returned a photoluminescence quantum yield (in C1CCCCC1) of 0.04.
Compound `CCCCCCc1ccc(-n2c3c4cccc(OC)c4nc(-c4ccc(C#N)cc4)c3c3c2c2c(-c4ccc(C#N)cc4)nc4c(OC)cccc4c2n3-c2ccc(CCCCCC)cc2)cc1` had a photoluminescence quantum yield (in ClC(Cl)Cl) of 0.13.
In turn, `CCN(CC)c1ccc(/C=N/c2cc3nc4ccccc4nc3cc2/N=C/c2ccc(N(CC)CC)cc2O)c(O)c1` returned a photoluminescence quantum yield (in CC#N) of 0.21.
As to `FC(F)(F)c1ccc(-c2nc(-c3ccc(C(F)(F)F)cc3)n3ccccc23)cc1`, where the note is “in ClC(Cl)Cl”, the photoluminescence quantum yield is 0.16.
Turning to `COC(=O)[C@@]12N=N[C@@](C(=O)OC)(C3[C@H]1C3(C)C)[C@H]1[C@@H]2C1(C)C` (stereo partly drawn), the photoluminescence quantum yield (in CC#N) was 0.041.
Compound `N#Cc1ccc(-c2nc(-c3ccccc3)c3ccccn23)cc1` displayed a photoluminescence quantum yield (in ClCCl) of 0.21.
With `CCc1ccc(-n2c3ccccc3c3cc4c(cc32)c2ccccc2n4-c2ccc(CC)s2)s1`, the photoluminescence quantum yield (in ClC(Cl)Cl) turned out to be 0.023.
As to `COC(=O)/C(C#N)=c1\s/c(=c2/s/c(=C(/C#N)C(=O)OC)c3cc(-c4ccc(C(F)(F)F)cc4)sc23)c2sc(-c3ccc(C(F)(F)F)cc3)cc12`, for the setting “in Cc1ccccc1”, the photoluminescence quantum yield came out at 0.212.
For `CCCCC1(CCCC)c2cc(C#Cc3ccc4ccc5cccc6ccc3c4c56)ccc2-c2ccc(C#Cc3ccc4ccc5cccc6ccc3c4c56)cc21`, the photoluminescence quantum yield (in Cc1ccccc1) was 0.99.
Consider `N#Cc1cc2ccc(O)cc2oc1=O`, for which the photoluminescence quantum yield is, setting by setting: (in C1CCCCC1) 0.0105; (in C1CCOC1) 0.00102; (in CC#N) 0.00059; (in CCOC(C)=O) 0.0597; (in CS(C)=O) 0.00123; (in ClC(Cl)Cl) 0.0509.
As for `COc1ccc2cc(/C=C/c3nc(/C=C/c4ccc(N(C)C)cc4)cc(/C=C/c4ccc(N(C)C)cc4)n3)ccc2c1`, the photoluminescence quantum yield (in ClCCl) was 0.52.
As for `COc1ccc(/C=C/C=C/C2=NC3C(=O)NC(N)=NC3N2[C@H]2C[C@H](O)[C@@H](CO)O2)cc1` (stereo partly drawn), the photoluminescence quantum yield is 0.71 (in C1COCCO1), 0.68 (in CC#N) and 0.56 (in CO).
On to `COc1ccc2cc(/C=C/C3=CC(c4ccccc4)=[O+][B-](F)(F)O3)ccc2c1`, for which, for the setting “in ClCCl”, the photoluminescence quantum yield worked out at 0.43.
Turning to `CCn1c2ccccc2c2ccc(C#N)cc21`, the photoluminescence quantum yield (in C1CCCCC1) came to 0.12.
On to `COc1ccc(C#Cc2ccc(C#N)cc2)cc1OC`, for which the photoluminescence quantum yield runs as follows: (in C1COCCO1) 0.16; (in CC#N) 0.13; (in CCCCCC) 0.16; (in CCCCCCC) 0.16; (in CCCO) 0.13; (in CCOC(C)=O) 0.13. Besides, the photoluminescence quantum yield reads like this: (in CS(C)=O) 0.21; (in ClC(Cl)Cl) 0.18; (in ClCCl) 0.22.
As to `CC1(C)C(/C=C/C2=C(c3ccc(C(=O)O)cc3)C(=C/C=C3/N(CCCCS(=O)(=O)[O-])c4ccc5ccccc5c4C3(C)C)/CCC2)=[N+](CCCCS(=O)(=O)[O-])c2ccc3ccccc3c21`, the photoluminescence quantum yield (in CO) was found to be 0.092.
Take `CN(C)c1ccc(C(=O)Nc2cccc(Cl)c2)cc1`: the photoluminescence quantum yield reads like this: (in C1CCCCC1) 0.0031; (in C1CCOC1) 0.0263; (in CC#N) 0.0319; (in CCOCC) 0.0103.
The compound `CC(C)(C)c1cc(/C2=C3\C=CC(=N3)/C(c3ccc([N+](=O)[O-])cc3)=c3/cc/c([nH]3)=C(\c3ccc([N+](=O)[O-])cc3)C3=N/C(=C(/c4cc(C(C)(C)C)cc(C(C)(C)C)c4)c4cc2c[nH]4)C=C3)cc(C(C)(C)C)c1` displayed a photoluminescence quantum yield (in CC(=O)N(C)C) of 0.024.
Compound `C(/C=C/C1=[NH+]c2cccc3cccc1c23)=c1/[nH]c2cccc3cccc1c32` displayed a photoluminescence quantum yield (in CO) of 0.0013.
In the case of `CC(=O)c1ccc(/C=C/C=C/C2=NC3C(=O)NC(N)=NC3N2[C@H]2C[C@H](O)[C@@H](CO)O2)cc1` (stereo partly drawn), the photoluminescence quantum yield by setting is: (in C1COCCO1) 0.59; (in CC#N) 0.57; (in CO) 0.015.
Turning to `CN(C)c1ccc(C2=Nc3scc(-c4ccc([N+](=O)[O-])cc4)[n+]3[B-](F)(F)O2)cc1`, the photoluminescence quantum yield by setting is: (in C1CCOC1) 0.001; (in CC#N) 0.001; (in Cc1ccccc1) 0.001; (in ClCCl) 0.001.
With `CN(C)c1cc(C#N)c(N(C)C)c(C#N)c1`, the photoluminescence quantum yield by setting is: (in C1CCCCC1) 0.37; (in C1CCOC1) 0.54; (in C1COCCO1) 0.55; (in CC1COC(=O)O1) 0.58; (in CC#N) 0.53; (in CC(C)=O) 0.51. Besides, the photoluminescence quantum yield runs as follows: (in CC(C)OC(C)C) 0.39; (in CCC#N) 0.47; (in CCC(C)C) 0.37; (in CCCCCC) 0.38; (in CCCCCCCCO) 0.58; (in CCCCCOCCCCC) 0.46. Moreover, the photoluminescence quantum yield by setting is: (in CCCCOC(C)=O) 0.52; (in CCCCOCCCC) 0.45; (in CCCOCCC) 0.55; (in CCO) 0.51; (in CCOC(C)=O) 0.49; (in CCOCC) 0.46. Besides, the photoluminescence quantum yield is, setting by setting: (in CN(C)C=O) 0.57; (in CO) 0.52; (in CS(C)=O) 0.55; (in Cc1ccccc1) 0.55; (in ClCCCl) 0.52; (in ClCCl) 0.57. For the same compound, the photoluminescence quantum yield amounted to 0.5 (in N#Cc1ccccc1), 0.47 (in O), 0.54 (in OCC(O)CO) and 0.57 (in c1ccccc1).
Under “in CC#N”, `COc1ccc(-c2pc3ccccc3s2)cc1` (stereo not drawn) returned a photoluminescence quantum yield of 0.054.
`CC(C)[Si](C#Cc1c2cc3ccccc3cc2c(C#Cc2ccc(C(F)(F)F)cc2)c2cc3ccccc3cc12)(C(C)C)C(C)C` came in with a photoluminescence quantum yield (in ClCCl) of 0.06.
Consider `CSc1sc(C(=O)c2ccccc2)c2nn[nH]c(=O)c12`, for which the photoluminescence quantum yield is, setting by setting: (in C1CCOC1) 0.016; (in CC#N) 0.013; (in CCO) 0.0088; (in CN(C)C=O) 0.0057; (in CO) 0.0069; (in CS(C)=O) 0.0056.
As for `CN(C)c1ccc(/C=C/c2nc3ccccc3s2)cc1`, the photoluminescence quantum yield reads like this: (in C1CCCCC1) 0.001; (in C1CCOC1) 0.003; (in C1COCCO1) 0.0022; (in CC#N) 0.0066; (in CC(C)O) 0.0048; (in CCCCCC) 0.0018. Further, the photoluminescence quantum yield (in CCCCCCC) worked out at 0.0014; the photoluminescence quantum yield (in CCO) was found to be 0.0045; the photoluminescence quantum yield (in CCOC(C)=O) stood at 0.0053; the photoluminescence quantum yield (in CCOCC) is 0.002; the photoluminescence quantum yield (in CN(C)C=O) is 0.007; the photoluminescence quantum yield (in CO) stood at 0.003. Further, the photoluminescence quantum yield was determined as 0.0078 (in CS(C)=O), 0.0012 (in O) and 0.115 (in OCC(O)CO).
For the compound `CCCCCCCCCc1c2ccccc2cc2c1oc1c3c(c4ccccc4c12)-c1c(c2oc4cc5ccccc5cc4c2c2ccccc12)OCO3`, for the setting “in C1CCOC1”, the photoluminescence quantum yield is 0.7.
For `CC(C)(C)c1ccc2c(c1)sc1[n+]2[B-](F)(F)n2c(c3cccc4cccc2c43)=N1`, the photoluminescence quantum yield runs as follows: (in C1CCOC1) 0.85; (in CC#N) 0.93; (in CCCCCC) 0.87; (in Cc1ccccc1) 0.86; (in ClCCl) 0.86.
Take `c1ccc2cc3c(cc2c1)-c1cccc2cc4ccccc4c-3c12`: the photoluminescence quantum yield (in CCCCCCC) turned out to be 0.52.
